pIC50: −log10 of the molar value. Read-outs that look alike come from different tables or passages of the source.
Molecular target: T1, Human HIF-PHD2 (Homo sapiens, UniProt Q9GZT9)
T1 construct: FLAG-tagged full length PHD2 expressed in and purified from baculovirus-infected Sf9 cells; FLAG; made in house; host or cells: baculovirus-infected Sf9 cells
Experiment: Inhibition of the hydroxylation of a HIF peptide by PHD2 (time resolved fluorescence, 384-well)
Assay type: biochemical
Settings: FLAG-tagged full length PHD2, 0.2 μM 2-oxoglutarate, 0.5 μM HIF-1α peptide, 45 minutes at room temperature

[1] = read-out: MS m/z (M + 1)+ and human HIF-PHD2 IC50

T1 sequence (Q9GZT9 whole entry): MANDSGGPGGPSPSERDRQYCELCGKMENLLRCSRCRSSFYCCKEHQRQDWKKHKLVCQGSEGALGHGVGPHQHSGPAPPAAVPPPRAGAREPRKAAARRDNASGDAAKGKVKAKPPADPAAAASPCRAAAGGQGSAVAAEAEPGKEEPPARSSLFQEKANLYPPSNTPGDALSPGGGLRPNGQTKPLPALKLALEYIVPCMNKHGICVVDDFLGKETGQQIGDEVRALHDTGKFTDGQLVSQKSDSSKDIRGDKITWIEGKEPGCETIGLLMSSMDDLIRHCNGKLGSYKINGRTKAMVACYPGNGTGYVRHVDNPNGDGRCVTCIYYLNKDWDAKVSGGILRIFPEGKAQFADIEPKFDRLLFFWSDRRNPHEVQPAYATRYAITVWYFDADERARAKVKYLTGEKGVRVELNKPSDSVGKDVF

Row | SMILES | pIC50 (read-out: Human HIF-PHD2 IC50) | pIC50 [1]
1 | CS(=O)(=O)c1ccc2c(O)c(C(=O)NCC(=O)O)c(=O)n3c2c1OCC3 [Example 38, 2-(7-Hydroxy-10-(methylsulfonyl)-5-oxo-3,5-dihydro-2H-[1,4]oxazino[2,3,4-ij]quinoline-6-carboxamido)acetic acid] | 8.80 | –
2 | CS(=O)(=O)c1ccc2c3c1c(O)c(C(=O)NCC(=O)O)c(=O)n3CC(c1ccc(C(F)(F)F)cc1)O2 (stereo not drawn) [Example 12, 2-(7-Hydroxy-8-(methylsulfonyl)-5-oxo-2-(4-(trifluoromethyl)phenyl)-3,5-dihydro-2H-[1,4]oxazino[2,3,4-ij]quinoline-6-carboxamido)acetic acid] | 7.72 | –
3 | O=C(O)CNC(=O)c1c(O)c2cccc3c2n(c1=O)C(c1ccccc1)C3 (racemic) [Example 129, 2-(6-Hydroxy-4-oxo-2-phenyl-2,4-dihydro-1H-pyrrolo[3,2,1-ij]quinoline-5-carboxamido)acetic acid] | 7.13 | –
4 | O=C(O)CNC(=O)c1c(O)c2ccc(F)c3c2n(c1=O)C(c1ccc(C(F)(F)F)cc1)CN3 (stereo not drawn) [Example 115, 2-(10-Fluoro-7-hydroxy-5-oxo-3-(4-(trifluoromethyl)phenyl)-1,2,3,5-tetrahydropyrido[1,2,3-de]quinoxaline-6-carboxamido)acetic acid] | 7.89 | –
5 | O=C(O)CNC(=O)c1c(O)c2cccc3c2n(c1=O)C(c1ccc(Cl)cc1)CO3 (stereo not drawn) [Example 157, 2-(7-Hydroxy-5-oxo-3-(4-chlorophenyl)-3,5-dihydro-2H-[1,4]oxazino[2,3,4-ij]quinoline-6-carboxamido)acetic acid] | 7.60 | –
6 | O=C(O)CNC(=O)c1c(O)c2c(Br)ccc3c2n(c1=O)CC(c1ccc(Br)cc1)O3 (stereo not drawn) [Example 55, 2-(8-Bromo-2-(4-bromophenyl)-7-hydroxy-5-oxo-3,5-dihydro-2H-[1,4]oxazino[2,3,4-ij]quinoline-6-carboxamido)acetic acid] | 8.60 | –
7 | CS(=O)(=O)c1ccc2c(O)c(C(=O)NCC(=O)O)c(=O)n3c2c1OC(c1ccc(C(F)(F)F)cc1)C3 (single isomer, unassigned) [Example 24, 2-(7-Hydroxy-10-(methylsulfonyl)-5-oxo-2-(4-(trifluoromethyl)phenyl)-3,5-dihydro-2H-[1,4]oxazino[2,3,4-ij]quinoline-6-carboxamido)acetic acid] | 8.89 | –
8 | CN1c2cc(C#N)cc3c(O)c(C(=O)NCC(=O)O)c(=O)n(c23)CC1c1ccc(C(F)(F)F)cc1 (stereo not drawn) [Example 96, 2-(9-Cyano-7-hydroxy-1-methyl-5-oxo-2-(4-(trifluoromethyl)phenyl)-1,2,3,5-tetrahydropyrido[1,2,3-de]quinoxaline-6-carboxamido)acetic acid] | 8.52 | –
9 | Cc1ccc2c(O)c(C(=O)NCC(=O)O)c(=O)n3c2c1CCC3 [Example 46, 2-(1-Hydroxy-8-methyl-3-oxo-3,5,6,7-tetrahydropyrido[3,2,1-ij]quinoline-2-carboxamido)acetic acid] | 7.74 | –
10 | O=C(O)CNC(=O)c1c(O)c2cc(Cl)cc3c2n(c1=O)CC(c1ccc(C(F)(F)F)cc1)O3 (single isomer, unassigned) [Example 74, 2-(9-Chloro-7-hydroxy-5-oxo-2-(4-(trifluoromethyl)phenyl)-3,5-dihydro-2H-[1,4]oxazino[2,3,4-ij]quinoline-6-carboxamido)acetic acid] | 8.00 | –
11 | CC(O)c1cc2c3c(c1)c(O)c(C(=O)NCC(=O)O)c(=O)n3C(Cc1ccc(C(F)(F)F)cc1)CO2 (stereo not drawn) [Example 35, 2-(7-Hydroxy-9-(1-hydroxyethyl)-5-oxo-3-(4-(trifluoromethyl)benzyl)-3,5-dihydro-2H-[1,4]oxazino[2,3,4-ij]quinoline-6-carboxamido)acetic acid] | 7.92 | –
12 | N#Cc1ccc2c3c1c(O)c(C(=O)NCC(=O)O)c(=O)n3C(c1ccc(C(F)(F)F)cc1)CS2 (stereo not drawn) [Example 99, 2-(8-Cyano-7-hydroxy-5-oxo-3-(4-(trifluoromethyl)phenyl)-3,5-dihydro-2H-[1,4]thiazino[2,3,4-ij]quinoline-6-carboxamido)acetic acid] | 8.29 | –
13 | CS(=O)(=O)c1ccc(C2Cn3c(=O)c(C(=O)NCC(=O)O)c(O)c4ccc(C(F)(F)F)c(c43)O2)cc1 (stereo not drawn) [Example 76, 2-(7-Hydroxy-2-(4-(methylsulfonyl)phenyl)-5-oxo-10-(trifluoromethyl)-3,5-dihydro-2H-[1,4]oxazino[2,3,4-ij]quinoline-6-carboxamido)acetic acid] | 8.85 | –
14 | COc1cc2c3c(c1)c(O)c(C(=O)NCC(=O)O)c(=O)n3CC(c1ccc(C(F)(F)F)cc1)O2 (stereo not drawn) [Example 81, 2-(7-Hydroxy-9-methoxy-5-oxo-2-(4-(trifluoromethyl)phenyl)-3,5-dihydro-2H-[1,4]oxazino[2,3,4-ij]quinoline-6-carboxamido)acetic acid] | 8.54 | –
15 | O=C(O)CNC(=O)c1c(O)c2cccc3c2n(c1=O)C(c1cnc(C(F)(F)F)s1)CO3 (stereo not drawn) [Example 171, 2-(7-hydroxy-5-oxo-3-(2-(trifluoromethyl)thiazol-5-yl)-3,5-dihydro-2H-[1,4]oxazino[2,3,4-ij]quinoline-6-carboxamido)acetic acid] | – | 8.27
16 | O=C(O)CNC(=O)c1c(O)c2cccc3c2n(c1=O)C(c1ccc(C(F)(F)F)cc1)CO3 (racemic) [Example 1, 2-(7-Hydroxy-5-oxo-3-(4-(trifluoromethyl)phenyl)-3,5-dihydro-2H-[1,4]oxazino[2,3,4-ij]quinoline-6-carboxamido)acetic acid] | 7.80 | –
17 | O=C(O)CNC(=O)c1c(O)c2ccc(Br)c3c2n(c1=O)C(c1ccc(C(F)(F)F)cc1)CO3 (stereo not drawn) [Example 161, 2-(10-bromo-7-hydroxy-5-oxo-3-(4-(trifluoromethyl)phenyl)-3,5-dihydro-2H-[1,4]oxazino[2,3,4-ij]quinoline-6-carboxamido)acetic acid] | – | 7.80
18 | COc1ncccc1-c1ccc(C2COc3cccc4c(O)c(C(=O)NCC(=O)O)c(=O)n2c34)cc1 (stereo not drawn) [Example 147, N-({7-hydroxy-3-[4-(2-methoxypyridin-3-yl)phenyl]-5-oxo-2,3-dihydro-5H-[1,4]oxazino[2,3,4-ij]quinolin-6-yl}carbonyl)glycine] | – | 7.74
19 | O=C(O)CNC(=O)c1c(O)c2cc(F)cc3c2n(c1=O)C(c1ccc(C(F)(F)F)cc1)CO3 (stereo not drawn) [Example 158, 2-(9-fluoro-7-hydroxy-5-oxo-3-(4-(trifluoromethyl)phenyl)-3,5-dihydro-2H-[1,4]oxazino[2,3,4-ij]quinoline-6-carboxamido)acetic acid] | – | 7.80
20 | O=C(O)CNC(=O)c1c(O)c2cccc3c2n(c1=O)C(c1cccc(C(F)(F)F)c1)CO3 (stereo not drawn) [Example 167] | – | 7.13
21 | CS(=O)(=O)c1ccc2c(O)c(C(=O)NCC(=O)O)c(=O)n3c2c1OC(c1ccc(C(F)(F)F)cc1)C3 (single isomer, unassigned) [Example 23, 2-(7-Hydroxy-10-(methylsulfonyl)-5-oxo-2-(4-(trifluoromethyl)phenyl)-3,5-dihydro-2H-[1,4]oxazino[2,3,4-ij]quinoline-6-carboxamido)acetic acid] | 8.80 | –
22 | O=C(O)CNC(=O)c1c(O)c2cccc3c2n(c1=O)C(c1ccc(-c2ccn[nH]2)cc1)CO3 (stereo not drawn) [Example 152, 2-(3-(4-(1H-pyrazol-5-yl)phenyl)-7-hydroxy-5-oxo-3,5-dihydro-2H-[1,4]oxazino[2,3,4-ij]quinoline-6-carboxamido)acetic acid] | – | 7.96
23 | CS(=O)(=O)c1ccc2c3c1c(O)c(C(=O)NCC(=O)O)c(=O)n3C(Cc1ccc(C(F)(F)F)cc1)CO2 (stereo not drawn) [Example 28, 2-(7-Hydroxy-8-(methylsulfonyl)-5-oxo-3-(4-(trifluoromethyl)benzyl)-3,5-dihydro-2H-[1,4]oxazino[2,3,4-ij]quinoline-6-carboxamido)acetic acid] | 7.38 | –
24 | O=C(O)CNC(=O)c1c(O)c2ccc(-c3ccccn3)c3c2n(c1=O)C(c1ccc(C(F)(F)F)cc1)CO3 (stereo not drawn) [Example 136, N-({7-hydroxy-5-oxo-10-pyridin-2-yl-3-[4-(trifluoromethyl)phenyl]-2,3-dihydro-5H-[1,4]oxazino[2,3,4-ij]quinolin-6-yl}carbonyl)glycine] | – | 7.72
25 | O=C(O)CNC(=O)c1c(O)c2cccc3c2n(c1=O)C(Cc1ccc(C(F)(F)F)cc1)CO3 (stereo not drawn) [Example 3, 2-(7-Hydroxy-5-oxo-3-(4-(trifluoromethyl)benzyl)-3,5-dihydro-2H-[1,4]oxazino[2,3,4-ij]quinoline-6-carboxamido)acetic acid] | 7.68 | –
26 | Cc1ccc2c(O)c(C(=O)NCC(=O)O)c(=O)n3c2c1OC(c1ccc(C(F)(F)F)cc1)C3 (stereo not drawn) [Example 25, 2-(7-Hydroxy-10-methyl-5-oxo-2-(4-(trifluoromethyl)phenyl)-3,5-dihydro-2H-[1,4]oxazino[2,3,4-ij]quinoline-6-carboxamido)acetic acid] | 8.27 | –
27 | N#Cc1cc2c3c(c1)c(O)c(C(=O)NCC(=O)O)c(=O)n3C(c1ccc(C(F)(F)F)cc1)CN2 (stereo not drawn) [Example 92, 2-(9-Cyano-7-hydroxy-5-oxo-3-(4-(trifluoromethyl)phenyl)-1,2,3,5-tetrahydropyrido[1,2,3-de]quinoxaline-6-carboxamido)acetic acid] | 8.51 | –
28 | N#Cc1ccc2c3c1c(O)c(C(=O)NCC(=O)O)c(=O)n3C(c1ccc(C(F)(F)F)cc1)CO2 (stereo not drawn) [Example 180, ammonium 2-(8-cyano-7-hydroxy-5-oxo-3-(4-(trifluoromethyl)phenyl)-3,5-dihydro-2H-[1,4]oxazino[2,3,4-ij]quinoline-6-carboxamido)acetate] | – | 8.54
29 | O=C(O)CNC(=O)c1c(O)c2cccc3c2n(c1=O)C(c1cnco1)CO3 (stereo not drawn) [Example 173, 2-(7-hydroxy-3-(oxazol-5-yl)-5-oxo-3,5-dihydro-2H-[1,4]oxazino[2,3,4-ij]quinoline-6-carboxamido)acetic acid] | – | 7.85
30 | O=C(O)CNC(=O)c1c(O)c2cc(Cl)cc3c2n(c1=O)CC(c1ccc(C(F)(F)F)cc1)O3 (single isomer, unassigned) [Example 75, 2-(9-chloro-7-hydroxy-5-oxo-2-(4-(trifluoromethyl)phenyl)-3,5-dihydro-2H-[1,4]oxazino[2,3,4-ij]quinoline-6-carboxamido)acetic acid] | – | 7.92

Source: patent US9969752B2, “Inhibitors of HIF prolyl hydroxylase” (MERCK SHARP & DOHME CORP., priority 2014, dated 2018)
